The results in this text go back to ChEMBL document CHEMBL4680214, “Fluorinated derivatives of 2-phenyl-3-hydroxy-4(1H)-quinolinone as tubulin polymerization inhibitors” (Eur J Med Chem, 2020).

Test [1] relates to HCT-116. The test can be described thus: Cytotoxicity against human HCT-116 cells incubated for 72 hrs by MTS assay. The format is functional, cell-based. As to conditions: HCT-116, 72 h.
In the next test the test system is A549. Put plainly: Cytotoxicity against human A549 cells incubated for 72 hrs by MTS assay. Type of test: functional, cell-based. The following applies: A549, 72 h.
The test system of test [2] is K562. Put plainly: Cytotoxicity against human K562 cells incubated for 72 hrs by MTS assay. Type of test: functional, cell-based. As to conditions: K562, 72 h.
A further test relates to BJ. Put plainly: Cytotoxicity against human BJ cells incubated for 72 hrs by MTS assay. The format is cell-based.
Test [3] has as its system HCT-116. The test can be described thus: Cytotoxicity against p53-deficient human HCT-116 cells incubated for 72 hrs by MTS assay. The format is functional, cell-based. The following applies: HCT-116, 72 h.
Test [4] relates to K562. The test can be described thus: Cytotoxicity against human paclitaxel-resistant K562 cells incubated for 72 hrs by MTS assay. The format is functional, cell-based. The following applies: K562, 72 h.
Test [5] has as its system CCRF-CEM. Put plainly: Cytotoxicity against human daunorubicine-resistant CCRF-CEM cells incubated for 72 hrs by MTS assay. Type of test: functional, cell-based.
Test [6] relates to CCRF-CEM. Put plainly: Cytotoxicity against human CCRF-CEM cells incubated for 72 hrs by MTS assay. The format is functional, cell-based.
The next test is filed under the species Sus scrofa. The test can be described thus: Inhibition of porcine brain tubulin polymerization assessed as Vmax of polymerization at 10 umol/L measured at 60 secs interval for 30 mins by turbidometric method. As to conditions: dose 10.0 µmol/L.
Test [7] deals with CCRF-CEM. The test can be described thus: Cell cycle arrest in human CCRF-CEM cells assessed as BrU incorporation at IC50 measured after 24 hrs by propidium iodide/immunostaining based flow cytometry (reference value: 52.2%). Type of test: functional.
Test [8] has as its system CCRF-CEM. The test can be described thus: Cell cycle arrest in human CCRF-CEM cells assessed as accumulation at S phase at IC50 measured after 24 hrs by propidium iodide staining based flow cytometry (reference value: 42.2%). Type of test: functional.
Test [9] deals with CCRF-CEM. Put plainly: Cell cycle arrest in human CCRF-CEM cells assessed as accumulation at G2/M phase at 5 times IC50 measured after 24 hrs by propidium iodide staining based flow cytometry (reference value: 22.6%). The format is functional.
Test [10] has as its system CCRF-CEM. Put plainly: Cell cycle arrest in human CCRF-CEM cells assessed as accumulation at sub-G1 phase at 5 times IC50 measured after 24 hrs by propidium iodide staining based flow cytometry (reference value: 2%). Type of test: functional.
Test [11] deals with CCRF-CEM. Put plainly: Cell cycle arrest in human CCRF-CEM cells assessed as BrdU incorporation at 5 times IC50 measured after 24 hrs by propidium iodide/immunostaining based flow cytometry (reference value: 60.0%). Type of test: functional.
Test [12] deals with CCRF-CEM. Put plainly: Cell cycle arrest in human CCRF-CEM cells assessed as phosphorylation of histone H3 at Ser10 at IC50 measured after 24 hrs by propidium iodide staining based flow cytometry (reference value: 2.0%). Type of test: functional.
Test [13] deals with CCRF-CEM. Put plainly: Cell cycle arrest in human CCRF-CEM cells assessed as accumulation at G0/G1 phase at 5 times IC50 measured after 24 hrs by propidium iodide staining based flow cytometry (reference value: 35.2%). Type of test: functional.
For test [14], the system named is CCRF-CEM. Put plainly: Cell cycle arrest in human CCRF-CEM cells assessed as accumulation at G0/G1 phase at IC50 measured after 24 hrs by propidium iodide staining based flow cytometry (reference value: 35.2%). Type of test: functional.
For test [15], the system named is CCRF-CEM. The test can be described thus: Cell cycle arrest in human CCRF-CEM cells assessed as accumulation at sub-G1 phase at IC50 measured after 24 hrs by propidium iodide staining based flow cytometry (reference value: 2%). Type of test: functional.
Test [16] has as its system CCRF-CEM. Put plainly: Cell cycle arrest in human CCRF-CEM cells assessed as accumulation at G2/M phase at IC50 measured after 24 hrs by propidium iodide staining based flow cytometry (reference value: 22.6%). Type of test: functional.
The test system of test [17] is CCRF-CEM. The test can be described thus: Cell cycle arrest in human CCRF-CEM cells assessed as BrdU incorporation at IC50 measured after 24 hrs by propidium iodide/immunostaining based flow cytometry (reference value: 60.0%). The format is functional.
Test [18] relates to CCRF-CEM. Put plainly: Cell cycle arrest in human CCRF-CEM cells assessed as BrU incorporation at 5 times IC50 measured after 24 hrs by propidium iodide/immunostaining based flow cytometry (reference value: 52.2%). Type of test: functional.
For test [19], the system named is CCRF-CEM. The test can be described thus: Cell cycle arrest in human CCRF-CEM cells assessed as phosphorylation of histone H3 at Ser10 at 5 times IC50 measured after 24 hrs by propidium iodide staining based flow cytometry (reference value: 2.0%). Type of test: functional.
The test system of test [20] is CCRF-CEM. Put plainly: Cell cycle arrest in human CCRF-CEM cells assessed as accumulation at S phase at 5 times IC50 measured after 24 hrs by propidium iodide staining based flow cytometry (reference value: 42.2%). The format is functional.

The structures appear in SMILES notation.

With `O=c1c(O)c(-c2ccccc2)[nH]c2c(F)c(F)c(F)c(F)c12`, the IC50 in the test with HCT-116 [1] was more than 50 µM; in the test with A549 it was more than 50 µM; with K562 [2] it was more than 50 µM; in the test with BJ, more than 50 µM; in the test with HCT-116 [3], more than 50 µM; with K562 [4] it was 16.8 µM. Moreover, the IC50 with CCRF-CEM [5] was more than 50 µM; in the test on CCRF-CEM [6] it was 19.5 µM.
Turning to `O=c1c(O)c(-c2ccccc2)[nH]c2ccc(F)cc12`, the IC50 with HCT-116 [1] was more than 50 µM; with A549 it was 18.8 µM; in the test with K562 [2] it was 18.8 µM; in the test with BJ, more than 50 µM; in the test with HCT-116 [3], 17.4 µM; in the test on K562 [4] it was 20.3 µM. Besides, the IC50 in the test on CCRF-CEM [5] is 15.3 µM; in the test with CCRF-CEM [6], 17.8 µM.
As to `CC(=O)O[C@H]1C(=O)[C@@]2(C)[C@H]([C@H](OC(=O)c3ccccc3)[C@]3(O)C[C@H](OC(=O)[C@H](O)[C@@H](NC(=O)c4ccccc4)c4ccccc4)C(C)=C1C3(C)C)[C@]1(OC(C)=O)CO[C@@H]1C[C@@H]2O`, the Vmax (milli optical density/minute) in the test filed under Sus scrofa is 63.3.
As to `O=c1c(O)c(-c2ccccc2)[nH]c2cc(F)c(N3CCOCC3)cc12`, the IC50 with HCT-116 [1] is 5.2 µM; in the test with A549 it was 13.6 µM; in the test with K562 [2], 19.3 µM; with BJ, more than 50 µM; in the test with HCT-116 [3], more than 50 µM; in the test with K562 [4], 12.8 µM. For the same compound, the half-maximal inhibitory concentration (IC50) in the test on CCRF-CEM [5] is 11.7 µM; with CCRF-CEM [6] it was more than 50 µM.
In the case of `O=c1c(O)c(-c2ccccc2F)[nH]c2ccccc12`, the IC50 was 35.1 µM with HCT-116 [1]; 31.7 µM in the test on A549; 33.7 µM in the test on K562 [2]; more than 50 µM in the test on BJ; 34.2 µM with HCT-116 [3]; 22.2 µM in the test with K562 [4]. For the same compound, the half-maximal inhibitory concentration (IC50) is 50 µM in the test on CCRF-CEM [5] and 17.4 µM with CCRF-CEM [6].
For the compound `O=c1c(O)c(-c2ccccc2)[nH]c2cc(F)c(F)cc12`, the IC50 is 15.1 µM in the test with HCT-116 [1]; 18.2 µM in the test on A549; 18.9 µM in the test on K562 [2]; more than 50 µM in the test with BJ; 22.6 µM in the test with HCT-116 [3]; 17.4 µM with K562 [4]. Moreover, the 50% inhibitory concentration (IC50) in the test on CCRF-CEM [5] amounted to 12.8 µM; with CCRF-CEM [6] it was 12.6 µM.
Take `O=c1c(O)c(-c2cccc(F)c2)[nH]c2ccccc12`: the half-inhibitory concentration (IC50) is 27.1 µM with HCT-116 [1]; 13.1 µM in the test on A549; 12.9 µM in the test on K562 [2]; more than 50 µM in the test with BJ; 50 µM in the test with HCT-116 [3]; 7.5 µM in the test with K562 [4]. Further, the IC50 was found to be 50 µM with CCRF-CEM [5] and 7.3 µM with CCRF-CEM [6]. Further, the Activity with CCRF-CEM [7] came to 33.7%; in the test with CCRF-CEM [8] it was 32.6%; with CCRF-CEM [9], 27.5%; in the test with CCRF-CEM [10], 15.9%; in the test on CCRF-CEM [11], 22.4%; in the test on CCRF-CEM [12], 1%. The Activity with CCRF-CEM [13] is on record as 52.6%; with CCRF-CEM [14], 34.9%; with CCRF-CEM [15], 5.4%; in the test on CCRF-CEM [16], 32.6%; with CCRF-CEM [17], 26.7%; in the test on CCRF-CEM [18], 3.8%. For the same compound, the results for the Activity in the test with CCRF-CEM [19] and in the test on CCRF-CEM [20] were 0.2% and 19.9%, respectively.
Consider `COC(=O)Nc1nc2cc(C(=O)c3cccs3)ccc2[nH]1`, for which, in the test filed under Sus scrofa, the Vmax (milli optical density/minute) is 7.6.
`O=c1c(O)c(-c2ccccc2)[nH]c2cc(F)ccc12`: the half-maximal inhibitory concentration (IC50) in the test on HCT-116 [1] is more than 50 µM; in the test on A549 it was 19.5 µM; with K562 [2] it was 21.7 µM; in the test on BJ, more than 50 µM; in the test with HCT-116 [3] it was 43.9 µM; with K562 [4] it was 21.4 µM. Further, the figures for the half-inhibitory concentration (IC50) with CCRF-CEM [5] and in the test on CCRF-CEM [6] were 17.5 µM and 17.8 µM, respectively.
Turning to `O=c1c(O)c(-c2ccccc2)[nH]c2cc(F)c(N3CCN(CCOCCO)CC3)cc12`, the IC50 in the test on HCT-116 [1] is more than 50 µM; in the test on A549, more than 50 µM; in the test with K562 [2], 47.7 µM; with BJ, more than 50 µM; with HCT-116 [3], 29.4 µM; with K562 [4] it was more than 50 µM. In addition, the values for the IC50 with CCRF-CEM [5] and in the test with CCRF-CEM [6] were more than 50 µM and 19.8 µM, respectively.
With `O=c1c(O)c(-c2ccccc2)[nH]c2cc(F)cc(F)c12`, the IC50 is 22.5 µM in the test with HCT-116 [1]; 19.6 µM with A549; 21.6 µM with K562 [2]; more than 50 µM with BJ; more than 50 µM in the test with HCT-116 [3]; 19.8 µM in the test with K562 [4]. Moreover, the IC50 came out at 18 µM in the test with CCRF-CEM [5] and 4.6 µM in the test with CCRF-CEM [6]. For the same compound, the Activity is recorded as 57.2% in the test with CCRF-CEM [7]; 48.4% in the test on CCRF-CEM [8]; 21.8% in the test on CCRF-CEM [9]; 1.4% in the test on CCRF-CEM [10]; 79% in the test on CCRF-CEM [11]; 2.1% with CCRF-CEM [12]. Also, the Activity in the test with CCRF-CEM [13] was determined as 26.6%; in the test on CCRF-CEM [14], 33%; in the test with CCRF-CEM [15], 0.8%; with CCRF-CEM [16], 18.6%; in the test with CCRF-CEM [17], 65.7%; in the test on CCRF-CEM [18] it was 53.7%. In addition, the Activity is recorded as 0.9% in the test with CCRF-CEM [19] and 51.6% in the test on CCRF-CEM [20].
As to `O=c1c(O)c(-c2ccc(F)cc2)[nH]c2ccccc12`, the IC50 in the test on HCT-116 [1] was 34 µM; in the test on A549 it was 18.1 µM; in the test with K562 [2] it was 40.4 µM; with BJ, more than 50 µM; in the test on HCT-116 [3], 36.5 µM; with K562 [4], 8.6 µM. Also, the IC50 with CCRF-CEM [5] was found to be 9.4 µM; in the test on CCRF-CEM [6], 2.4 µM. The Activity came out at 31.3% in the test on CCRF-CEM [7]; 24.2% in the test on CCRF-CEM [8]; 40.7% in the test on CCRF-CEM [9]; 8.4% with CCRF-CEM [10]; 25.2% in the test with CCRF-CEM [11]; 1.5% in the test on CCRF-CEM [12]. Moreover, the Activity is 45.9% in the test on CCRF-CEM [13]; 39.6% with CCRF-CEM [14]; 4.4% with CCRF-CEM [15]; 36.2% in the test on CCRF-CEM [16]; 35.5% in the test on CCRF-CEM [17]; 32.1% in the test with CCRF-CEM [18]. The Activity in the test with CCRF-CEM [19] was found to be 1.6%; with CCRF-CEM [20] it was 13.5%.
